Residue numbers refer to the chain shown, from its start.
Experiments:
HLA-DP4 (DPB1*0401) = target: T1, HLA-DP4 (DPB1*0401) (Homo sapiens, UniProt P04440+P20036); assay: HLA II/peptide competition binding assay, HLA-DP401
T1 construct: endogenous in cells
T1 sequence (P04440 30-258): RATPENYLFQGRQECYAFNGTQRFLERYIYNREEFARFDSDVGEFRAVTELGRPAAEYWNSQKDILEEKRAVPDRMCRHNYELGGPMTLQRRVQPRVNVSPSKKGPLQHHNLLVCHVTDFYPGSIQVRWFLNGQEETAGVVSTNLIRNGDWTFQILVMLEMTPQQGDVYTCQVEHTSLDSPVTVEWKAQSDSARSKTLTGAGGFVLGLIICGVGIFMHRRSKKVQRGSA
T1 sequence (P20036 29-260): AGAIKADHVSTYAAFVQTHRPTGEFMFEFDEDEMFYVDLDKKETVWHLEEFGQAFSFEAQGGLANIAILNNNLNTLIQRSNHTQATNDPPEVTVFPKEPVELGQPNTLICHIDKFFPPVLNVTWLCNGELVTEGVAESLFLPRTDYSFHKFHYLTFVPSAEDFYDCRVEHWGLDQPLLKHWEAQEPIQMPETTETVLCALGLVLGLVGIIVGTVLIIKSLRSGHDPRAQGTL

HLA-DR7 (DRB1*0701) = target: T2, HLA-DR7 (DRB1*0701) (Homo sapiens, UniProt P01903+P01911, A100R/A102G/A103Q/D57E/D86V/E43K/F76Y/K127E/L162R/M171V/P40G/Q125H/Q99D/R33Q/R42Y/R54Q/S133A/S66F/T210M/V115G/Y107V/Y59L/Y89S); assay: HLA II/peptide competition binding assay, HLA-DR7
T2 construct: endogenous in cells

HLA-DRB5 (DRB5*0101) = target: T3, HLA-DRB5 (DRB5*0101) (Homo sapiens, UniProt P01903+Q30154); assay: HLA II/peptide competition binding assay, HLA-DRB5
T3 construct: endogenous in cells

HLA-DR1 (DRB1*0101) = target: T4, HLA-DR1 (DRB1*0101) (Homo sapiens, UniProt P01903+P01911, A100R/D57E/F55L/F60I/F76Y/I96L/L162R/M171V/P40L/Q125E/R42F/V115G/Y59C); assay: HLA II/peptide competition binding assay, HLA-DR1
T4 construct: endogenous in cells

HLA-DR11 (DRB1*1101) = target: T5, HLA-DR11 (DRB1*1101) (Homo sapiens, UniProt P01903+P01911, A100R/A169T/A87E/I96F/K41T/L162R/M171V/P40S/Q125H/Q178H/Q39Y/Q99D/R42S/S66Y/T262R/V115G/W38E); assay: HLA II/peptide competition binding assay, HLA-DR11
T5 construct: endogenous in cells

HLA-DRB4 (DRB4*0101) = target: T6, HLA-DRB4 (DRB4*0101) (Homo sapiens, UniProt P01903+P13762, G164S); assay: HLA II/peptide competition binding assay, HLA-DRB4
T6 construct: endogenous in cells

HLA-DR13 (DRB1*1301) = target: T7, HLA-DR13 (DRB1*1301) (Homo sapiens, UniProt P01903+P01911, A100E/A169T/K41T/L162R/M171V/P40S/Q125H/Q178H/Q39Y/Q99D/R42S/S66N/T262R/W38E/Y61H); assay: HLA II/peptide competition binding assay, HLA-DR13
T7 construct: endogenous in cells

HLA-DR15 (DRB1*1501) = target: T8, HLA-DR15 (DRB1*1501) (Homo sapiens, UniProt P01903+P01911); assay: HLA II/peptide competition binding assay, HLA-DR15
T8 construct: endogenous in cells

HLA-DR3 (DRB1*0301) = target: T9, HLA-DR3 (DRB1*0301) (Homo sapiens, UniProt P01903+P01911, A100K/A102G/A103R/A169T/F55Y/I96L/K41T/L162R/M171V/P40S/Q125H/Q178H/Q39Y/R42S/S66N/T106N/T262R/W38E/Y61H); assay: HLA II/peptide competition binding assay, HLA-DR3
T9 construct: endogenous in cells

HLA-DRB3 (DRB3*0101) = target: T10, HLA-DRB3 (DRB3*0101) (Homo sapiens, UniProt P01903+P79483); assay: HLA II/peptide competition binding assay, HLA-DRB3
T10 construct: endogenous in cells

HLA-DP4 (DPB1*0402) = target: T11, HLA-DP4 (DPB1*0402) (Homo sapiens, UniProt P04440+P20036, A65V/A84D/A85E/L207M); assay: HLA II/peptide competition binding assay, HLA-DP402
T11 construct: endogenous in cells
T11 sequence (P04440 30-258 A65V/A84D/A85E): T1 sequence (P04440 30-258) with A36V, A55D, A56E
T11 sequence (P20036 29-260): T1 sequence (P20036 29-260)

HLA-DR4 (DRB1*0401) = target: T12, HLA-DR4 (DRB1*0401) (Homo sapiens, UniProt P01903+P01911, A100K/A169T/F76Y/I96L/K127E/L162R/M171V/N62H/P40V/Q125Y/R42H/S133A/S149N/S66Y/V115G/V209L/W38E); assay: HLA II/peptide competition binding assay, HLA-DR4
T12 construct: endogenous in cells

[1] = tested on: HLA II molecules predominant in the Caucasian population; assay: Binding activity with respect to the 12 HLA II molecules (summary of the panel); set-up: species or system human; conditions: of 12 HLA II molecules; good affinity = IC50 less than 1000 nM
Protocol: 12 HLA II molecules (10 HLA-DR molecules and 2 HLA-DP molecules) most abundant in the French population, and the allelic frequencies of which are characteristic of the Caucasian population, were selected:
The HLA II molecules are diluted in 10 mM phosphate buffer containing 150 mM NaCl, 1 mM dodecyl maltoside (DM), 10 mM citrate and 0.003% thimerosal, in the presence of an appropriate biotinylated peptide (tracer peptide), at a given pH, and of serial dilutions of competitive peptide (peptide to be tested). Namely: the HA 306-318 peptide is used at 1 nM and 30 nM, at pH=6, respectively for the DRB1*0101 and DRB1*0401 alleles, and at 20 nM, at pH=5, for the DRB1*1101 allele. YKL is used at 20 nM, at pH=5, for the DRB1*0701 allele. The incubation is carried out at pH=4.5 for the DRB1*1501, DRB1*1301 and DRB1*0301 alleles, in the presence of, respectively, A3 152-166 ([…]), B1 21-36 (200 nM) and MT 2-16 (200 nM). The oxybiotinylated peptide is used at pH=5 (10 nM) for the DPB1*0401 and DPB1*0402 alleles. The reaction mixture (100 μl per well) is incubated in polypropylene 96-well plates (NUNC), at 37° C. for 24 h, with the exception of the DRB1*1301 and DRB1*0301 alleles, which are incubated for 72 h. At the end of the incubation, the samples are neutralized with 50 μl of 450 mM Tris HCl buffer, pH 7.5, containing 0.003% thimerosal, 0.3% BSA and 1 mM DM. The samples are then transferred onto Maxisorp™ ELISA plates (96-well, NUNC) pre-coated with antibodies L243 or B7/21 L243 (10 μg/ml) and saturated with 100 mM Tris HCl buffer, pH=7.5, containing 0.3% BSA and 0.003% of thimerosal. The incubation of the samples on these plates is carried out for 2 hours at ambient temperature. Washes with 0.1M Tris HCl buffer, pH 7.5, containing 0.05% Tween-20 are then carried out between each step. The biotinylated peptide bound to the HLA II molecules is detected by the addition of 100 μL/well of the streptavidin-alkaline phosphatase conjugate (45 minutes, Amersham) diluted to 1/2000 in 10 mM Tris buffer, pH 7, containing 0.15M NaCl, 0.05% Tween 20, 0.2% BSA and 0.003% thimerosal, and then of 200 μL/well of the substrate 4-methylumbelliferyl-phosphate (MUP, SIGMA) at the concentration of 100 μM, in 0.05M NaHCO3 buffer, pH 9.8, containing 1 mM MgCl2. The emission of fluorescence by the product of the enzymatic reaction is measured at 450 nm after excitation at 365 nm, using a fluorimeter for 96-well plates (Dynex). The maximum binding is determined by incubating the biotinylated tracer peptide with the HLA II molecule in the absence of competitor peptide. The binding specificity is controlled by the addition of an excess of nonbiotinylated peptide. […] The means and the standard deviations are calculated from at least three independent experiments.

Row | SMILES | IC50 (HLA-DP4 (DPB1*0401)) | IC50 (HLA-DR7 (DRB1*0701)) | IC50 (HLA-DRB5 (DRB5*0101)) | IC50 (HLA-DR1 (DRB1*0101)) | IC50 (HLA-DR11 (DRB1*1101)) | IC50 (HLA-DRB4 (DRB4*0101)) | IC50 (HLA-DR13 (DRB1*1301)) | IC50 (HLA-DR15 (DRB1*1501)) | IC50 (HLA-DR3 (DRB1*0301)) | IC50 (HLA-DRB3 (DRB3*0101)) | IC50 (HLA-DP4 (DPB1*0402)) | IC50 (HLA-DR4 (DRB1*0401)) | Number of alleles bound [1] | IC50 DR13 (HLA-DR13 (DRB1*1301); DRB1*1301, tracer B1 21-36 200 nM, pH=4.5, 72 h) | IC50 DR3 (HLA-DR3 (DRB1*0301); DRB1*0301, tracer MT 2-16 200 nM, pH=4.5, 72 h)
1 | CC(C)C[C@H](NC(=O)[C@H](CCCCN)NC(=O)[C@H](CCCNC(=N)N)NC(=O)[C@H](CCC(N)=O)NC(=O)[C@H](C)NC(=O)[C@H](C)NC(=O)[C@H](C)NC(=O)[C@H](Cc1ccc(O)cc1)NC(=O)[C@H](CO)NC(=O)[C@H](CO)NC(=O)[C@H](C)N)C(=O)N[C@@H](CC(C)C)C(=O)N[C@H](C(=O)N1CCC[C@H]1C(=O)N[C@H](C(=O)O)C(C)C)[C@@H](C)O [Peptide A15V] | > 100 µM | 1.73 µM | 0.463 µM | 1.2 µM | 0.004 µM | > 100 µM | > 100 µM | 26.5 µM | > 100 µM | > 100 µM | > 100 µM | 35.5 µM | – | – | –
2 | CC[C@H](C)[C@H](NC(=O)CNC(=O)[C@H](CC(C)C)NC(=O)[C@H](Cc1ccccc1)NC(=O)[C@H](CC(C)C)NC(=O)[C@H](C)NC(=O)[C@H](CCC(N)=O)NC(=O)CNC(=O)[C@H](Cc1c[nH]cn1)NC(=O)[C@H](CC(C)C)NC(=O)[C@H](CC(N)=O)NC(=O)[C@H](Cc1c[nH]c2ccccc12)NC(=O)[C@H](CC(C)C)NC(=O)[C@H](C)N)C(=O)N[C@H](C(=O)N[C@@H](CC(C)C)C(=O)O)C(C)C [Peptide A16L] | 1.18 µM | 0.122 µM | 2.68 µM | 0.079 µM | 11 µM | > 100 µM | – | 0.048 µM | – | > 100 µM | 0.725 µM | > 100 µM | 4 | Insoluble | Insoluble
3 | CC(C)C[C@H](NC(=O)[C@H](CC(C)C)NC(=O)[C@H](CC(C)C)NC(=O)[C@@H](NC(=O)[C@@H]1CCCN1C(=O)[C@H](CC(C)C)NC(=O)[C@H](Cc1c[nH]cn1)NC(=O)[C@@H]1CCCN1C(=O)[C@@H](N)CC(=O)O)[C@@H](C)O)C(=O)NCC(=O)N[C@H](C(=O)N[C@@H](CO)C(=O)NCC(=O)N[C@@H](CO)C(=O)NCC(=O)NCC(=O)N[C@@H](CC(=O)O)C(=O)N[C@@H](CC(=O)O)C(=O)N[C@@H](CC(=O)O)C(=O)N[C@@H](CC(=O)O)C(=O)N1CCC[C@H]1C(=O)N[C@@H](Cc1c[nH]cn1)C(=O)NCC(=O)N1CCC[C@H]1C(=O)N[C@H](C(=O)N[C@@H](CCC(N)=O)C(=O)N[C@@H](CC(C)C)C(=O)N[C@@H](CO)C(=O)N[C@@H](Cc1ccc(O)cc1)C(=O)N[C@@H](Cc1ccc(O)cc1)C(=O)N[C@@H](CC(=O)O)C(=O)O)C(C)C)[C@@H](C)O [Peptide D31D] | > 100 µM | 27.5 µM | > 100 µM | 17.3 µM | 25 µM | > 100 µM | > 100 µM | 0.251 µM | > 100 µM | > 100 µM | 28.3 µM | > 100 µM | 1 | – | –
